According to US10611742B2, “4-oxo-4,5-dihydrothiazole derivative, preparation method and use thereof” (Institute of Pharmacology and Toxicology Academy of …, priority 2015, dated 2020):

Key:
Assay type in all cases: cell-based
[1] = test system: enterovirus EV71 (SZ-98 strain); test: anti-EV71 activity, therapeutic effect on Vero cell (CPE inhibition, Celltiter Glo); conditions: EV71 (SZ-98 strain), therapeutic effect on Vero cell; read-out: IC50
Protocol: (§1) Test principle: Vero cell, MRC-5 cell, and RD cell were used as host of virus, respectively, and samples were tested for their inhibition of cytopathic effect (CPE) caused by virus.
(§2) 1. Virus strain: enterovirus EV71 (SZ-98 strain, provided by Chinese Center for Disease Control and Prevention), Vero cell (provided by the Cell Bank of Chinese Academy of Sciences), MRC-5 cell (provided by the Cell Bank of Chinese Academy of Sciences), and RD cell (provided by the Cell Bank of Chinese Academy of Sciences), were subjected to passage culture, respectively, and stored at −80° C.
(§3) 2. Sample treatment: a test sample (Compounds 1-14 and positive control agent) was dissolved in dimethyl sulfoxide (DMSO) to prepare a stock solution, which was stored at −20° C. The stock solution was diluted with DMEM medium (Gibco Company) containing 2% fetal bovine serum (Gibco Company) to prepare a 100 μM solution before use, and was 3-fold diluted with the medium to obtain 8 diluted concentrates.
(§4) 3. Positive control agent: Con1 (pitstop2) (purchased from AmyJet Scientific Inc., Abcam), a broad-spectrum antiviral inhibitor.
(§5) 4. Test method: • 4.1 Therapeutic effect: the cells were seeded on a 96-well culture plate, and cultured in a 5% CO2, 37° C. incubator for 24 h. About 100 TCID50 enterovirus EV71 was added to each well. After adsorption at 37° C. for 1 h, the virus solution was discarded, and a drug was added at different diluted concentrates, respectively. Meanwhile, virus control and cell control were set, and cultured at 37° C. […] The virus-inhibition rate of a sample at each concentration was calculated based on the chemiluminescent value, the sample concentration was used as abscissa, and the inhibition rate was used as ordinate, and S-Curve fitting was performed by using Origin software. Half maximal inhibitory concentration (IC50) of each sample for enterovirus EV71 was calculated based on the fitting results. Median toxic concentration (TC50) was determined by the same method. […] To each well, a drug was added at a different diluted concentration, then the cells were cultured at 37° C. for 2 h, and then the drug was discarded. About 100 TCID50 enterovirus EV71 was added to each well, adsorbed at 37° C. for 1.5 h, then the virus solution was discarded, and a maintenance medium free of drug was added. Meanwhile, virus control and cell control were set, and cultured at 37° C. […] The virus-inhibition rate of a sample at each concentration was calculated, and half maximal inhibitory concentration (IC50), median toxic concentration (TC50), and selection index (SI) of each sample for enterovirus EV71 were calculated. The methods for determining and calculating them were as described in Item 4.1

[2] = test system: enterovirus EV71 (SZ-98 strain); test: anti-EV71 activity, therapeutic effect on MRC-5 cell (CPE inhibition, Celltiter Glo); conditions: MRC5
Protocol: as §1, §2, §3, §4, §5

[3] = test system: enterovirus EV71 (SZ-98 strain); test: anti-EV71 activity, therapeutic effect on RD cell (CPE inhibition, Celltiter Glo)
Protocol: as §1, §2, §3, §4, §5

[4] = test system: enterovirus EV71 (SZ-98 strain); test: anti-EV71 activity, preventive effect on Vero cell (CPE inhibition)
Protocol: as §1, §2, §3, §4, §5

[5] = test system: enterovirus EV71 (SZ-98 strain); test: anti-EV71 activity, preventive effect on RD cell (CPE inhibition)
Protocol: as §1, §2, §3, §4, §5

[6] = median toxic concentration on Vero cell; conditions: African green monkey, Vero cells; for CC50: Table 1-1 (therapeutic effect), read-out: TC50 (the source's name); for CC50 at 2 h: Table 2-1 (preventive effect), read-out: TC50
Protocol: as §2, §3, §5

[7] = median toxic concentration on MRC-5 cell; conditions: human, MRC-5 cells, Table 1-2 (therapeutic effect), read-out: TC50 (the source's name)
Protocol: as §2, §3, §5

[8] = median toxic concentration on RD cell; conditions: human, RD cells; for CC50: read-out: TC50 (the source's name); for CC50 at 2 h: Table 2-2 (preventive effect), read-out: TC50
Protocol: as §2, §3, §5

[9] = test system: clathrin-mediated endocytosis of transferrin; test: inhibition of clathrin-mediated endocytosis of transferrin in HeLa cells (fluorescence microscope); conditions: for inhibitory effect on endocytosis of transferrin (in words): 1.25 to 40 μmol/L; for inhibition at 20 µM: Homo sapiens, 20 μM compound, read-out: Inhibition rate
Protocol: 1. Experiment principle: transferrin was a key protein for clathrin-mediated endocytosis. Therefore, by determining the effect of a compound on transferrin in HeLa cell, the inhibitory effect of the compound on clathrin-mediated endocytosis could be evaluated. 2. Sample treatment: a test compound was dissolved in DMSO to prepare a stock solution, which was stored at −20° C. The stock solution was diluted with HEPES buffer (25 mm HEPES, 20 mm Glucose, 1% BSA, sterile water) to prepare a solution with an initial concentration of […] before use, and was 2-fold diluted with the buffer to obtain 6 diluted concentrations from 1.25 to 40 μmol/L. 4. Test method: HeLa cells (provided by the Cell Bank of Chinese Academy of Sciences) were seeded on a 24-well culture plate coated with 0.1 mg/ml polylysine, a serum-free medium DMEM (Gibco Company) was added at 500 μl/well, and the cells were cultured for one night. To each well, 0.5 μl a test compound at a different diluted concentration or 0.1 v/v % DMSO was added, then the pretreatment was performed for 15 min, and then 20 μg/ml alexa^568 transferrin (2 μl) (TF, SIGMA-ALDRICH Company) was added, and the incubation was carried out at 37° C. for 15 min. The resultant mixture was then washed with Live Cell Imaging Solution (LCIS, Invitrogen Company) and an acid at a low pH ([…] NaCl solution containing 0.5% acetic acid) for 30 s, respectively, followed by fixing with cold methanol, and was observed under fluorescence microscope.

Row | SMILES | IC50 [1] [µM] | IC50 ([3]; EV71 (SZ-98 strain)) [µM] | IC50 [4] [µM] | IC50 [5] [µM] | IC50 ([3]; Enterovirus, EV71) [µM] | IC50 [2] [µM] | CC50 [6] [µM] | CC50 at 2 h [6] [µM] | CC50 [7] [µM] | CC50 ([8]; Table 1-3 (therapeutic effect)) [µM] | CC50 at 2 h [8] [µM] | anti-EV71 activity (in words) [3] | CC50 [8] [µM] | endocytosis of transferrin at 20 μM (in words) [9] | inhibitory effect on endocytosis of transferrin (in words) [9] | inhibition at 20 µM [9] [%]
1 | O=C1N=C(NS(=O)(=O)c2cccc3ccccc23)S/C1=C\c1cccc(O)c1 [Compound 6, Naphthalene-1-sulfonic acid [5-(3-hydroxy-benzylidene)-4-oxo-4,5-dihydro-thiazol-2-yl] amide] | > 22.2 | 15.4 | > 22.2 | > 22.2 |  | > 22.2 | 38.5 | 38.5 | 38.5 | 38.5 | 38.5 | better anti-EV71 activity |  |  |  | 
2 | O=C1N=C(NS(=O)(=O)c2cccc3ccccc23)S/C1=C\c1ccc(O)c(Br)c1 [Compound 8, Naphthalene-1-sulfonic acid [5-(3-bromo-4-hydroxy-benzylidene)-4-oxo-4,5-dihydro-thiazol-2-yl] amide] | > 7.41 | 22.2 | > 7.41 | > 22.2 |  | > 2.47 | 12.8 | 12.8 | 9.54 | 66.7 | 66.7 | better anti-EV71 activity |  |  |  | 
3 | COc1cccc(OC)c1/C=C1\SC(NS(=O)(=O)c2cccc3ccccc23)=NC1=O [Compound 9, Naphthalene-1-sulfonic acid [5-(2,6-dimethoxy-benzylidene)-4-oxo-4,5-dihydro-thiazol-2-yl] amide] | > 22.2 | > 7.41 | > 22.2 | > 7.41 |  | > 22.2 | 38.5 | 38.5 | 38.5 | 12.8 | 12.8 |  |  |  |  | 
4 | O=C1N=C(NS(=O)(=O)c2cccc3ccccc23)S/C1=C\c1ccc(F)cc1Cl [Compound 10, Naphthalene-1-sulfonic acid [5-(2-chloro-4-fluoro-benzylidene)-4-oxo-4,5-dihydro-thiazol-2-yl] amide] | > 7.41 | > 7.41 | > 7.41 | 5.14 |  | > 7.41 | 10.7 | 10.7 | 12.8 | 15.4 | 15.4 |  |  | completely inhibited | dose-dependent | 100
5 | CC(=O)Nc1ccc(/C=C2\SC(NS(=O)(=O)c3cccc4ccccc34)=NC2=O)cc1 [Compound 12, Naphthalene-1-sulfonic acid [5-(4-acetylamino-benzylidene)-4-oxo-4,5-dihydro-thiazol-2-yl] amide] | > 22.2 | > 22.2 | > 22.2 | > 22.2 |  | > 22.2 | 32 | 32 | 38.5 | 38.5 | 38.5 |  |  |  |  | 
6 | O=C1N=C(NS(=O)(=O)c2cccc3ccccc23)SC1Nc1ccccc1 (stereo not drawn) [Compound 13, Naphthalene-1-sulfonic acid (4-oxo-5-phenylamino-4,5-dihydro-thiazol-2-yl) amide] | > 22.2 | > 22.2 | > 22.2 | 7.41 |  | > 22.2 | 66.7 | 66.7 | 66.7 | 66.7 | 66.7 |  |  |  |  | 50

Now from value to molecule, other results behind:

Row | IC50 [1] [µM] | IC50 ([3]; EV71 (SZ-98 strain)) [µM] | IC50 [4] [µM] | IC50 [5] [µM] | IC50 ([3]; Enterovirus, EV71) [µM] | SMILES | IC50 [2] [µM] | CC50 [6] [µM] | CC50 at 2 h [6] [µM] | CC50 [7] [µM] | CC50 ([8]; Table 1-3 (therapeutic effect)) [µM] | CC50 at 2 h [8] [µM] | anti-EV71 activity (in words) [3] | CC50 [8] [µM] | endocytosis of transferrin at 20 μM (in words) [9] | inhibitory effect on endocytosis of transferrin (in words) [9] | inhibition at 20 µM [9] [%]
7 | 7.41 | > 7.41 | > 7.41 | > 7.41 |  | O=C1N=C(NS(=O)(=O)c2cccc3ccccc23)S/C1=C\c1ccc(Cl)cc1Cl [Compound 1, Naphthalene-1-sulfonic acid [5-(2,4-dichloro-benzylidene)-4-oxo-4,5-dihydro-thiazol-2-yl] amide] | > 7.41 | 10.7 | 10.7 | 12.8 | 12.8 | 12.8 |  |  |  |  | 
8 | > 7.41 | > 7.41 | > 7.41 | > 7.41 |  | COc1cc(/C=C2\SC(NS(=O)(=O)c3cccc4ccccc34)=NC2=O)ccc1O [Compound 2, Naphthalene-1-sulfonic acid [5-(3-methoxy-4-hydroxy-benzylidene)-4-oxo-4,5-dihydro-thiazol-2-yl] amide] | > 7.41 | 12.8 | 12.8 | 22.2 | 22.2 | 22.2 |  |  |  |  | 
9 | > 2.47 | 5.75 | > 2.47 | > 7.41 | 5.75 | O=C1N=C(NS(=O)(=O)c2cccc3ccccc23)S/C1=C\c1ccc(Cl)cc1 [Compound 4, Naphthalene-1-sulfonic acid [5-(4-chloro-benzylidene)-4-oxo-4,5-dihydro-thiazol-2-yl] amide] | > 7.41 | 4.28 | 4.28 | 12.8 |  | 12.8 | better anti-EV71 activity | 12.8 |  |  | 
10 | > 2.47 | > 0.82 | > 2.47 | > 0.82 |  | COc1ccc(/C=C2\SC(NS(=O)(=O)c3cccc4ccccc34)=NC2=O)cc1O [Compound 7, Naphthalene-1-sulfonic acid [5-(3-hydroxy-4-methoxy-benzylidene)-4-oxo-4,5-dihydro-thiazol-2-yl] amide] | > 2.47 | 7.41 | 7.41 | 10.7 | 3.56 | 3.56 |  |  |  |  | 
11 | > 0.82 | > 22.2 | > 0.82 | > 22.2 |  | O=C1N=C(NS(=O)(=O)c2cccc3ccccc23)S/C1=C\c1ccc(-c2ccccc2)cc1 [Compound 11, Naphthalene-1-sulfonic acid (5-biphenyl-4-yl-methylene-4-oxo-4,5-dihydro-thiazol-2-yl) amide] | > 7.41 | 3.56 | 3.56 | 32 | 46.2 | 46.2 |  |  |  |  | 
12 | 15.4 | 15.4 | > 22.2 | 22.2 |  | O=C1N=C(NS(=O)(=O)c2cccc3ccccc23)SC1C(c1ccccc1)c1ccc(Br)cc1 (stereo not drawn) [Compound 14, Naphthalene-1-sulfonic acid {5-[(4-bromo-phenyl)-phenyl-methyl]-4-oxo-4,5-dihydro-thiazol-2-yl} amide] | 15.4 | 32 | 32 | 32 | 38.5 | 38.5 | better anti-EV71 activity |  | completely inhibited | dose-dependent | 100
